Assay [1] concerns the target muscarinic acetylcholine receptors. Nature of the assay: 3H-QNB (quinuclidinyl benzilate) displacement, rat cerebral membranes. The assay is classed as binding. Particulars: read-out: Displacement of Radiolabeled Liqands IC50 Quinuc Benz.
Another assay relates to rat hippocampus. Nature of the assay: tissue or blood. The class given is cell-based. Particulars: read-out: % of Nicotine Response 3H-NE Hippocampus.
Another assay has as its system rat striatal slices. Nature of the assay: 3H-dopamine release from rat striatal slices (superfusion). Particulars: read-out: % of Nicotine Response 3H-DA Striatum. The class given is cell-based. How it is done:
Measurement of ^3H-dopamine (^3H-DA) release from rat striatal slices was performed according to the method of Sacaan et al., (J. Pharmacol. Comp. Ther 224:224-230 (1995)). Male Sprague-Dawley rats (250-300 g) were decapitated and the striata or olfactory tubercles dissected quickly on a cold glass surface. The tissue was chopped to a thickness of 300 µm with a McIlwain tissue chopper. After chopping again at right angles the tissue was dispersed and incubated for 10 min. at 37°C in oxygenated Kreb's buffer. ^3H-Dopamine (40 Ci/mmol, NEN-Dupont, Boston, Ma) was added (50 nM) and the tissue was incubated for 30 min. in Kreb's buffer containing 10 µM pargyline and 0.5 mM ascorbic acid. Aliquots of the minced tissue were then transferred to chambers of a Brandel Superfusion system in which the tissue was supported on Whatman GF/B filter discs. The tissue was then superfused with buffer at a constant flow rate of 0.3 ml/min by means of a Brandel peristaltic pump. The perfusate was collected in plastic scintillation vials in 3-min fractions, and the radioactivity was estimated by scintillation spectrophotometry. The superfusate for the first 120 min was discarded. […] At the end of the experiment the filter and the tissue were removed, and the radiolabeled neurotransmitter content was estimated after extraction into scintillation fluid. The fractional efflux of radiolabeled neurotransmitter was estimated as the amount of radioactivity in the perfusate fraction relative to the total amount in the tissue.
The results presented in the Table are expressed as the percent fractional release.

Assay [2] has as its system acetylcholine release in the hippocampus. The assay is classed as in vivo, Male Sprague Dawley Rats. The text has this:
Male Sprague Dawley Rats (230-290 g) were anesthetized in a chamber saturated with isofluorane. Once immobilized, the rats were mounted in a Kopf stereotaxic apparatus with the incisor bar set at -3.3 mm (Praxinos and Watson, 1986). A midline incision was made on the skull to expose the underlying fascia. The skull was cleaned with an antibacterial preparation containing iodine and a hole was made in the skull at the following coordinates: AP, -3.5 mm and ML, +2.0 mm (Praxinos and Watson, 1986). A stainless steel guide cannula (Small Parts, Inc., Stillwater, FL) was cut to 2.0 mm length and inserted into the hole. Three additional holes were drilled into the skull surrounding the guide cannula and small machine screws were placed into these holes. The guide cannula and screws were secured by dental cement. A dummy cannula was inserted into the guide cannula to prevent clogging. The animals were removed from the stereotaxic frame and single housed for 3-7 days with free access to food and water.
On the day of the experiment, the rats were briefly anesthetized with isofluorane and the dummy cannulae were removed. A microdialysis cannula containing a Loop type probe with a rigid shaft and molecular weight cut-off of 6000 (ESA Inc, Chelmsfold, MA) of approximately 2 mm in length, was inserted into the guide cannula. Under these conditions, the microdialysis probe extended 2 mm beneath the guide cannula. The animal was placed in plastic bowl (CMA 120; CMA Microdialysis, Acton, MA, USA) with a harness around the neck. The microdialysis probe was connected to a syringe pump through which a salt solution representing the ionic concentration of the cerebrospinal fluid (artificial CSF; 145 mM NaCl; […]; […] and […]; pH 7.4; Moghaddam and Bunney, J. Neurochem, 53, 652-654, 1989) containing 100 nM neostigmine was pumped at a rate of 1.5 µL/min.
Twenty minute fractions were collected and automatically injected via a sample loop and an auto-injector. The on-line microdialysis comprised of the following components: a CMA/100 microsyringe pump connected to a CMA/111 syringe selector. The mobile phase (100 mM disodium hydrogen phosphate; 2.0 mM 1-octane sulfonic acid sodium salt; 0.005% reagent MB (ESA Inc., Chelmeford, MA) pH 8.00 with phosphoric acid) was pumped using a model 580 ESA pump through a polymeric reverse phase column (ACH-3, ESA Inc., […]; 3.2 mmx 15 cm). The effluent from the column was passed through an enzyme reactor containing immobilized acetylcholinesterase and choline oxidase (ACH-SPR, ESA Inc.). The HPLC column and the enzyme reactor were placed in a housing with a constant temperature of 35°C. Acetylcholine and choline in microdialysis samples were converted into hydrogen peroxide which was detected by amperometric oxidation in a ESA model 5041 analytical cell containing a glassy carbon target electrode and a palladium reference electrode. The oxidation potential was 250 mV and the signal was detected by a ESA model 5200 A Coulochem detector. The retention times for choline and acetylcholine under these conditions were 4 and 6 min, respectively. The limit of detection for acetylcholine was less than 100 fmol on column.
On the day of the experiment, 10-12 fractions were collected to establish the baseline acetylcholine release. Following the establishment of baseline, rats were injected with the test compound and samples were collected until the levels of acetylcholine in the dialysate samples returned to baseline levels (3-5 hr). Compounds were typically dissolved in saline and the pH of the solution was adjusted by the addition of NaOH.

Setting [3] is: hippocampal acetylcholine, rat microdialysis, nicotine 0.4 mg/kg, lobeline 5.0 mg/kg, first Formula Z compound 40 mg/kg, other doses not given.
The mark [4] stands for this setting: 60 pM 3H-QNB, rat cerebral membranes, no atropine.
Where [5] appears, read: compound tested at 300 µM, relative to nicotine 10µM.

Molecules are shown by their SMILES. Read-outs that look alike come from different tables or passages of the source.

For orientation: IC50 means the concentration that inhibits the measured activity by half.

Take `CN1CCCC1CCSc1ccc(O)cc1` (stereo not drawn) [2-[2-(4-Hydroxyphenyl)thioethyl]-1-methylpyrrolidine]: in assay [1], the IC50 amounted to 1.85 µM. Also, in the assay with rat hippocampus, the Emax at 300 µM stood at 32%. Besides, in the assay on rat striatal slices, the Emax at 300 µM turned out to be 453%. In addition, in assay [2] (setting [3]), the “Duration of Increase Above Baseline” value was 200 min and the “Peak Increase, % of Baseline” value is on record as 2,000 % of Baseline.
Turning to `COc1ccc(SCCC2CCCN2C)cc1F` (stereo not drawn) [2-[2-(3-Fluoro-4-methoxyphenyl)thioethyl]-1-methylpyrrolidine], the IC50 in assay [1] (setting [4]) worked out at 2.9 µM. Moreover, the Emax at 300 µM in the assay with rat striatal slices (setting [5]) came out at 21%.
Turning to `CN1CCCC1c1cccnc1` (stereo not drawn) [Nicotine, reference compound], the Emax at 300 µM in the assay on rat hippocampus was found to be 100%. Besides, the Emax at 10 µM in the assay with rat striatal slices was 100%. Moreover, in assay [2] (rat, in vivo), the “Duration of Increase Above Baseline” value is 200 min and the “Peak Increase, % of Baseline” value is given as 220 % of Baseline.
`CN1CCCC1CCSc1ccc(O)cc1Cl` (stereo not drawn) [2-[2-(2-Chloro-4-hydroxyphenyl)thioethyl]-1-methylpyrrolidine]: in assay [1] (setting [4]), the IC50 worked out at 3.3 µM. Moreover, the Emax at 300 µM with rat striatal slices (setting [5]) is 800%.
For `CN1CCC[C@H]1COC(=O)CCc1ccc(O)cc1` [1-Methvl-2-pyrrolidinemethyl 3-(4-hydroxyphenyl)propionate], the IC50 in assay [1] (setting [4]) is more than 10 µM.
`CNC1(C)C2CCC(C2)C1(C)C` (stereo not drawn) [mecamylamine]: the “attenuation of acetylcholine release induced by compound of Formula Z (A = 4-hydroxyphenyl, B = not present, D = -S-, E = -CH2CH2-, G = 1-methylpyrrolidino)” value in assay [2] (rat hippocampus microdialysis, Figure 5) is on record as “attenuation of acetylcholine release”.
As to `CN1[C@@H](CC(=O)c2ccccc2)CCC[C@H]1C[C@H](O)c1ccccc1` [Lobeline], in assay [2] (setting [3]), the “Duration of Increase Above Baseline” value was determined as 200 min and the “Peak Increase, % of Baseline” value is 400 % of Baseline.
As to `CN1CCC[C@H]1COC(=O)CCc1ccccc1` [1-Methyl-2-pyrrolidinemethyl 3-phenylpropionate], the IC50 in assay [1] (setting [4]) is 1.12 µM.

Source of the values: patent EP0874818B1, “NOVEL SUBSTITUTED ARYL COMPOUNDS USEFUL AS MODULATORS OF ACETYLCHOLINE RECEPTORS” (priority 1995, dated 1997).
